Measured values: ChEMBL document CHEMBL1201862, “PubChem BioAssay data set” (2004)
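Growth conditions: 96-well plates. Treatment: test compound, 48 hours, 5 concentrations. Analysis: linear interpolation between bracketing concentrations; unreached endpoints set to highest concentration. Abbreviation: GI50, concentration required for 50% inhibition of growth.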 The source made the active and inactive calls. Rule as the data show it: active = GI50 up to about 1.1 µM and inactive = higher.

Assays:
Assay in all cases: inhibition of tumour cell growth, NCI panel, 48 h
786-0 = tested on: 786-0
HCT-116 = tested on: HCT-116
HOP-62 = tested on: HOP-62
IGROV-1 = tested on: IGROV-1
LOX IMVI = tested on: LOX IMVI
M14 = tested on: M14
Malme-3M = tested on: Malme-3M
NCI-H226 = tested on: NCI-H226
NCI-H522 = tested on: NCI-H522
OVCAR-4 = tested on: OVCAR-4
SN12C = tested on: SN12C
SW-620 = tested on: SW-620
UACC-62 = tested on: UACC-62
UO-31 = tested on: UO-31
Hs-578T = tested on: Hs-578T
MDA-MB-435 = tested on: MDA-MB-435
NCI-H23 = tested on: NCI-H23
SF-295 = tested on: SF-295
CAKI-1 = tested on: CAKI-1

Measured: GI50

COc1ccc2c([nH]c3cc(O)c(C)cc32)c1C=O
inactive: 786-0 > 25 µM | HCT-116 > 25 µM | HOP-62 > 25 µM | IGROV-1 > 25 µM | LOX IMVI > 25 µM | M14 > 25 µM | Malme-3M > 25 µM | NCI-H226 > 25 µM | NCI-H522 20 µM | OVCAR-4 > 25 µM | SN12C > 25 µM | SW-620 > 25 µM | UACC-62 > 25 µM | UO-31 > 25 µM

COC(=O)c1csc(-c2nc(CCNC(=O)OC(C)(C)C)sc2Br)n1
inactive: 786-0 > 100 µM | HCT-116 > 100 µM | HOP-62 > 100 µM | Hs-578T > 100 µM | IGROV-1 > 100 µM | M14 > 100 µM | MDA-MB-435 > 100 µM | Malme-3M > 100 µM | NCI-H226 > 100 µM | NCI-H23 > 100 µM | SF-295 > 100 µM | SN12C > 100 µM | SW-620 > 100 µM | UACC-62 > 100 µM | UO-31 > 100 µM

FC(F)(F)c1cccc2ns[s+]c12
inactive: 786-0 > 100 µM | CAKI-1 > 100 µM | HCT-116 > 100 µM | HOP-62 > 100 µM | IGROV-1 > 100 µM | LOX IMVI > 100 µM | M14 > 100 µM | Malme-3M > 100 µM | NCI-H226 > 100 µM | NCI-H23 > 100 µM | NCI-H522 > 100 µM | OVCAR-4 > 100 µM | SF-295 > 100 µM | SN12C > 100 µM | SW-620 > 100 µM | UACC-62 > 100 µM | UO-31 > 100 µM

O=C1CCC(Cl)=CC2CCCN12 (stereo not drawn)
inactive: 786-0 > 100 µM | CAKI-1 > 100 µM | HCT-116 > 100 µM | HOP-62 > 100 µM | IGROV-1 > 100 µM | LOX IMVI > 100 µM | M14 > 100 µM | Malme-3M > 100 µM | NCI-H226 > 100 µM | NCI-H23 > 100 µM | SN12C > 100 µM | SW-620 > 100 µM | UACC-62 > 100 µM | UO-31 > 100 µM

CCc1cccc(C(C)CC)c1NC(=O)CC1C(=O)Nc2ccccc2S1(=O)=O (stereo not drawn)
inactive: 786-0 15.4 µM | CAKI-1 15.4 µM | HOP-62 36.8 µM | IGROV-1 20.6 µM | LOX IMVI 6.49 µM | M14 41.4 µM | Malme-3M 36.5 µM | NCI-H23 7.45 µM | OVCAR-4 12.8 µM | SF-295 25.1 µM | SN12C 18.4 µM | SW-620 8.61 µM | UACC-62 22.3 µM | UO-31 34 µM

COc1ccc(-c2c(C3=NCCCN3)nnn2-c2ccccc2)cc1
inactive: 786-0 > 100 µM | CAKI-1 > 100 µM | HCT-116 > 100 µM | HOP-62 > 100 µM | IGROV-1 > 100 µM | LOX IMVI > 100 µM | M14 > 100 µM | Malme-3M > 100 µM | NCI-H226 > 100 µM | NCI-H23 > 100 µM | NCI-H522 > 100 µM | OVCAR-4 > 100 µM | SF-295 > 100 µM | SN12C > 100 µM | SW-620 > 100 µM | UACC-62 > 100 µM | UO-31 > 100 µM

CCC1(O)CC(c2ccccc2)N(C)C(c2ccccc2)C1 (stereo not drawn)
inactive: 786-0 > 100 µM | CAKI-1 > 100 µM | HCT-116 86.9 µM | HOP-62 > 100 µM | IGROV-1 > 100 µM | LOX IMVI > 100 µM | M14 > 100 µM | Malme-3M > 100 µM | NCI-H226 > 100 µM | NCI-H23 > 100 µM | NCI-H522 94 µM | OVCAR-4 > 100 µM | SF-295 > 100 µM | SN12C > 100 µM | SW-620 > 100 µM | UACC-62 > 100 µM | UO-31 > 100 µM

CC(=O)OCC1OC(N=[N+]=[N-])C(OC(C)=O)C(OC(C)=O)C1OC1OC(COC(C)=O)C(OC(C)=O)C(OC(C)=O)C1OC(C)=O (stereo not drawn)
inactive: 786-0 > 100 µM | CAKI-1 > 100 µM | IGROV-1 > 100 µM | LOX IMVI > 100 µM | M14 > 100 µM | Malme-3M > 100 µM | NCI-H23 > 100 µM | NCI-H522 > 100 µM | OVCAR-4 > 100 µM | SF-295 > 100 µM | SN12C > 100 µM | SW-620 > 100 µM | UACC-62 > 100 µM | UO-31 > 100 µM

C=CCNC(=S)OCCCCCCCCCC
inactive: 786-0 18.2 µM | CAKI-1 19.1 µM | HCT-116 16.9 µM | HOP-62 21.7 µM | IGROV-1 20 µM | LOX IMVI 13.6 µM | M14 18.1 µM | Malme-3M 19.6 µM | NCI-H23 19.8 µM | OVCAR-4 16.5 µM | SF-295 19.1 µM | SN12C 17.7 µM | SW-620 18.7 µM | UACC-62 16.5 µM | UO-31 12.3 µM

CC1C=CC(C(N)C(=O)O)O1 (stereo not drawn)
inactive: 786-0 > 100 µM | CAKI-1 > 100 µM | HCT-116 > 100 µM | HOP-62 > 100 µM | IGROV-1 > 100 µM | LOX IMVI > 100 µM | M14 > 100 µM | Malme-3M > 100 µM | NCI-H226 > 100 µM | NCI-H23 > 100 µM | NCI-H522 > 100 µM | OVCAR-4 > 100 µM | SF-295 > 100 µM | SN12C > 100 µM | SW-620 > 100 µM | UACC-62 > 100 µM | UO-31 > 100 µM

CCOc1ccc(OP2(=O)NC(=O)C=C(C)N2)cc1 (stereo not drawn)
inactive: 786-0 92.9 µM | CAKI-1 > 100 µM | HCT-116 > 100 µM | HOP-62 > 100 µM | IGROV-1 > 100 µM | LOX IMVI > 100 µM | M14 > 100 µM | Malme-3M > 100 µM | NCI-H226 > 100 µM | NCI-H23 > 100 µM | NCI-H522 > 100 µM | OVCAR-4 > 100 µM | SF-295 > 100 µM | SN12C > 100 µM | SW-620 > 100 µM | UACC-62 > 100 µM | UO-31 > 100 µM

C[Si](C)(C)/C=C/CN1C(=O)CCC1O (stereo not drawn)
inactive: 786-0 > 100 µM | CAKI-1 > 100 µM | HCT-116 > 100 µM | HOP-62 > 100 µM | IGROV-1 > 100 µM | LOX IMVI > 100 µM | M14 > 100 µM | Malme-3M > 100 µM | NCI-H226 > 100 µM | NCI-H23 > 100 µM | NCI-H522 > 100 µM | OVCAR-4 > 100 µM | SF-295 > 100 µM | SN12C > 100 µM | SW-620 > 100 µM | UACC-62 > 100 µM | UO-31 > 100 µM

CN1CCc2c1nc(-c1ccccc1)c1c2N(C)CC1
inactive: 786-0 66.8 µM | CAKI-1 28.1 µM | HCT-116 28.1 µM | HOP-62 43.8 µM | IGROV-1 > 100 µM | LOX IMVI 49 µM | M14 44.8 µM | Malme-3M 91.4 µM | NCI-H23 55.7 µM | OVCAR-4 57 µM | SF-295 30.1 µM | SN12C 62.7 µM | SW-620 86.9 µM | UACC-62 > 100 µM | UO-31 14.7 µM

CCCCCCCCCCCCCCCCCCCCCCC(=O)N[C@H]1CCc2cc(OC)c(OC)c(OC)c2-c2ccc(SC)c(=O)cc21
inactive: 786-0 40.2 µM | CAKI-1 46.7 µM | HCT-116 26 µM | HOP-62 16.1 µM | IGROV-1 49.1 µM | M14 27.5 µM | Malme-3M 51.5 µM | NCI-H226 2.52 µM | NCI-H23 25.5 µM | NCI-H522 13.4 µM | OVCAR-4 > 100 µM | SF-295 34.6 µM | SN12C 28.2 µM | SW-620 30.3 µM | UACC-62 40 µM | UO-31 48 µM

CCCCNC1=C(C(=O)OCC)/C(=N/NC(=O)c2ccccc2O)CO1
inactive: 786-0 32.1 µM | CAKI-1 8.53 µM | HCT-116 6.68 µM | HOP-62 17.6 µM | IGROV-1 8.99 µM | LOX IMVI 25.5 µM | M14 37.2 µM | Malme-3M 35.2 µM | NCI-H226 18.5 µM | NCI-H23 18.8 µM | NCI-H522 13.4 µM | OVCAR-4 19.4 µM | SF-295 76.6 µM | SN12C 61 µM | SW-620 39 µM | UACC-62 13.1 µM | UO-31 4.54 µM

CCOC(=O)c1c(-c2ccc(OC)c(O)c2)c(C#N)c(=S)n(C2OC(CO)C(O)C(O)C2O)c1-c1ccccc1 (stereo not drawn)
inactive: 786-0 > 100 µM | CAKI-1 > 100 µM | HCT-116 > 100 µM | HOP-62 > 100 µM | Hs-578T > 100 µM | IGROV-1 > 100 µM | LOX IMVI > 100 µM | M14 > 100 µM | MDA-MB-435 > 100 µM | NCI-H226 > 100 µM | NCI-H23 > 100 µM | OVCAR-4 > 100 µM | SF-295 > 100 µM | SN12C > 100 µM | SW-620 > 100 µM | UACC-62 > 100 µM | UO-31 > 100 µM

O=C(CC1C(=O)Nc2ccccc2[S+]1[O-])Nc1cc(Cl)ccc1Cl (stereo not drawn)
inactive: 786-0 > 100 µM | CAKI-1 > 100 µM | HCT-116 > 100 µM | IGROV-1 > 100 µM | LOX IMVI > 100 µM | M14 > 100 µM | Malme-3M > 100 µM | NCI-H226 > 100 µM | NCI-H23 > 100 µM | NCI-H522 > 100 µM | SF-295 > 100 µM | SN12C > 100 µM | SW-620 > 100 µM | UACC-62 > 100 µM | UO-31 > 100 µM
